Results on nine molecules are retold here after patent US9605041B2, “Regulatory proteins and inhibitors” (INTRA-CELLULAR THERAPIES, INC., priority 2009, dated 2017).

For data set [1], the system named is Aβ production in Neuroblastoma 2a cells stably overexpressing human APP695. The experiment in a line: Cellular Aβ production assay, incubation with G01 (4G8 immunoprecipitation, 6E10 blot). The note with it: 10 μM, 3 hr. Type of data set: cell-based. As for the experimental part:
Neuroblastoma 2a cells stably overexpressing human APP695 are treated with 10 μM G01 for 3 hr. Cells treated with DMSO, or DMSO plus imatinib are used as controls. After 3 hr, conditioned medium is collected and Aβ immunoprecipitation is conducted using 4G8 antibody. The immunoprecipitated Aβ is separated on 10-20% Tris-tricine gel, transferred to PVDF membrane and detected by 6E10 antibody. […]

Another data set concerns the target T1, gSAP (16 kDa band) (Homo sapiens, UniProt A4D1B5).
T1 construct: the 16 kDa band is identified as the C-terminal domain of gSAP by MS/MS mass spectrometry; endogenous in cells; host or cells: CHAPSO-solubilized membrane extract of HEK293 cells
T1 sequence (A4D1B5 734-854 limits assumed): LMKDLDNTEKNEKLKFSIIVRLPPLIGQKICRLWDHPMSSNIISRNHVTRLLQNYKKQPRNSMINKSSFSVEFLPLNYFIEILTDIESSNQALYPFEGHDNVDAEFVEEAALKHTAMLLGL
In words: Affinity capture on immobilized biotin-imatinib beads, silver staining. Type of data set: binding. As to conditions: HEK293 cell lysates, SDS-PAGE. The procedure: After cell debris is cleared by centrifugation at 1,000 g for 5 mins, the supernatant is subjected to ultracentrifugation at 100,000 g for 1 h. The membrane pellet is then solubilized on ice in 50 mM Hepes, 150 mM NaCl, 5 mM MgCl2, 5 mM CaCl2, and 1% CHAPSO containing protease inhibitors (Roche Inc. cat#04 693 132 001) for 1 h and subject to ultracentrifugation for 1 h at 100,000 g. The soluble membrane extracts are incubated with Myonen™ streptavidin T1 beads (cat#656-01, Invitrogen) containing bound active biotin-imatinib for 3 hr at 4° C. Subsequently, the beads are washed three times with lysate buffer. Bound proteins are eluted with tricine SDS-PAGE sample buffer and separated on 10-20% tris-tricine gels. For immunoblotting, the gel is then transferred to PVDF membrane and probed with γ-secretase antibodies: PS1 antibody (cat#529592) and Pen-2 antibody (cat#NE1008) are from EMD Biosciences and nicastrin antibody is from BD Transduction Laboratories (cat#612290). Silver staining is used to identify protein bands in SDS-PAGE gels. The ˜16 kDa band is excised, trypsinized, and sequenced by tandem MS/MS mass spectrometry.
Endogenous γ-secretase components are detected by specific antibodies to Nicastrin, PS1-CTF and Pen-2. Photoactivatible ^125I and ^3H-G01 are used to label membrane preparations or intact HEK293 cells, respectively. […]

The subject of a further data set is PDGF receptor. In words: Kinase profiling (Millipore standard assay), PDGF receptor. The note with it: ATP=45 μM.
Data set [2] deals with T2, Abl kinase (Homo sapiens, UniProt P00519). The experiment in a line: Kinase profiling (Millipore standard assay), Abl kinase.
The target in another data set is T3, γ-secretase (Homo sapiens, UniProt P49768).
T3 construct: Membrane pellets are prepared from HEK293 cells transfected with APP-β-CTF (CT-100) as described above; endogenous in cells; host or cells: membranes of HEK293 cells transfected with APP-β-CTF (CT-100); gSAP-16K added from BL21 DE3 E. coli
In words: In vitro γ-secretase assay, membranes from HEK293 cells with APP-β-CTF. Type of data set: biochemical. As for the experimental part: Membrane pellets are prepared from HEK293 cells transfected with APP-β-CTF (CT-100) as described above, and the membranes are washed with assay buffer (10 mM Hepes, 140 mM KOAc, 2.5 mM MgOAc, 0.1 mM CaCl2, 1 mM ATP, pH 7.2) and pelleted at 100,000 g for 30 min at 4° C. Recombinant gSAP-16K (aa733-854 of the human gSAP) is expressed and purified from BL21 DE3 E. coli. The membranes are resuspended in 200 μl of assay buffer with 2 μg recombinant gSAP-16K or the same amount of BSA as control. A parallel system with 1 μM L685,458 (γ-secretase inhibitor) is also used as a control. The membrane suspension is pre-incubated at 4° C. for 1 hr and then incubated for 2 hr at 37° C. to allow in vitro generation of Aβ. The membranes are solubilized in ¼ volume of 200 mM Tris, pH 7.8, 760 mM NaCl, 24 mM EDTA, 10% Triton X-100, and insoluble material is removed by centrifugation at 10,000 g for 20 min. Aβ is immunoprecipitated from the lysate using 4G8 antibody, separated on 10-20% Tris-tricine gel, transferred to PVDF membrane, and subjected to autoradiography using Kodak MR film.

The next data set deals with mouse ΔE-Notch cleavage. In words: ΔE-Notch cleavage in HEK293 cells incubated with test compounds. Type of data set: cell-based, human. The note with it: 4 h incubation, DAPT positive control.
For the next data set, the target named is panel of 40 kinases. In words: Panel of 40 kinases. Type of data set: biochemical. The note with it: data not shown.
For data set [3], the target named is T2, Abl kinase. The experiment in a line: Ki versus Abl kinase. Type of data set: biochemical.
The test system of a further data set is Aβ in N2a cell system. In words: Total human Aβ in the N2a cell system (sandwich ELISA, Western blot). Type of data set: cell-based. The procedure:
Total human Aβ in the N2a cell system is measured in a standard sandwich ELISA by using a specific monoclonal antibody (6E10, Signet Laboratories) to capture the Aβ40 and Aβ42 and an antibody to Aβ17-24 (4G8, Signet Laboratories, Dedham, Mass.) for detection. Cell culture medium (5 μL/well) is diluted to 100 μL in phosphate-buffered saline/0.2% Tween 20 and loaded onto ELISA plates. For Western blot assays, cell medium is diluted with 2× tricine sodium dodecyl sulfate sample buffer, and heated at 95° C. for 5 min. […] Aβ is detected with antibody 4G8 and an Alexa 680-conjugated rabbit anti-mouse secondary and scanned with a LiCor Odyssey infrared scanner.
(In general: ELISA stands for enzyme-linked immunosorbent assay.)

Another data set concerns the target T4, gSAP-16K (16 kDa band) (Homo sapiens, UniProt A4D1B5).
T4 construct: is rapidly processed into a ˜16 kDa C-terminal fragment (gSAP-16K); endogenous in cells; host or cells: HEK293 membrane preparations (125I-G01) and intact HEK293 cells (3H-G01)
T4 sequence (A4D1B5 733-854): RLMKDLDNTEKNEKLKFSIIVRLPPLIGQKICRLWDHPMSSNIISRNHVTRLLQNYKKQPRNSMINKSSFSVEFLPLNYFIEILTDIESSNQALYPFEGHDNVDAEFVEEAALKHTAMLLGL
The experiment in a line: In vitro and intact cell photolabeling with 125I-G01 / 3H-G01. Type of data set: binding. As to conditions: 20 nM 125I-G01 on membranes or 3H-G01 on intact cells, photolysis.

The subject of a further data set is Aβ production. As to conditions: Netzer et al. 2003; cited from earlier work.
The next data set deals with T5, gSAP (Mus musculus, UniProt Q3TCV3).
T5 construct: pulse-chase labeling of endogenous gSAP in N2a cells; endogenous in cells; host or cells: Neuroblastoma 2a cells stably overexpressing APP695
T5 sequence (Q3TCV3 738-858 limits assumed): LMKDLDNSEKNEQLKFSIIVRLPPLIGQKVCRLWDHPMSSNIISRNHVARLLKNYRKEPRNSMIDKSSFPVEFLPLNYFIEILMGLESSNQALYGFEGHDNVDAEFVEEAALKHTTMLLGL
In words: siRNA knockdown of gSAP in neuroblastoma cells overexpressing APP695, gSAP level and Aβ. Type of data set: cell-based. The procedure: For cellular gSAP knockdown experiments, small interfering RNA (siRNA) of gSAP is purchased from Dharmacon Inc. The sequences of the siRNA used are as follow: sense sequence: [NT]; antisense sequence: 5'-[NT] Neuroblastoma 2a cell line stably overexpressing APP695 is transfected with siRNA using DharmaFect 2 reagent at a concentration of 50 nM following instructions provided by the manufacturer. […] To assay Aβ, the medium is removed after 48 h of transfection and replaced with Opti-MEM for 3 h incubation. Aβ is then immunoprecipitated from conditioned medium using the 4G8 antibody. Quantitation of Aβ levels in the conditioned medium is also assessed using Aβ40 and Aβ42 ELISA kits (Invitrogen). The procedures are carried out according to the manufacturer's instructions.

What is called IC50 is the concentration that inhibits the measured activity by half. As usually defined, the Ki is the equilibrium dissociation constant of an inhibitor or competing ligand from its target.

“Also recorded” adds a separate entry of the source.

T2 sequence (P00519 whole entry): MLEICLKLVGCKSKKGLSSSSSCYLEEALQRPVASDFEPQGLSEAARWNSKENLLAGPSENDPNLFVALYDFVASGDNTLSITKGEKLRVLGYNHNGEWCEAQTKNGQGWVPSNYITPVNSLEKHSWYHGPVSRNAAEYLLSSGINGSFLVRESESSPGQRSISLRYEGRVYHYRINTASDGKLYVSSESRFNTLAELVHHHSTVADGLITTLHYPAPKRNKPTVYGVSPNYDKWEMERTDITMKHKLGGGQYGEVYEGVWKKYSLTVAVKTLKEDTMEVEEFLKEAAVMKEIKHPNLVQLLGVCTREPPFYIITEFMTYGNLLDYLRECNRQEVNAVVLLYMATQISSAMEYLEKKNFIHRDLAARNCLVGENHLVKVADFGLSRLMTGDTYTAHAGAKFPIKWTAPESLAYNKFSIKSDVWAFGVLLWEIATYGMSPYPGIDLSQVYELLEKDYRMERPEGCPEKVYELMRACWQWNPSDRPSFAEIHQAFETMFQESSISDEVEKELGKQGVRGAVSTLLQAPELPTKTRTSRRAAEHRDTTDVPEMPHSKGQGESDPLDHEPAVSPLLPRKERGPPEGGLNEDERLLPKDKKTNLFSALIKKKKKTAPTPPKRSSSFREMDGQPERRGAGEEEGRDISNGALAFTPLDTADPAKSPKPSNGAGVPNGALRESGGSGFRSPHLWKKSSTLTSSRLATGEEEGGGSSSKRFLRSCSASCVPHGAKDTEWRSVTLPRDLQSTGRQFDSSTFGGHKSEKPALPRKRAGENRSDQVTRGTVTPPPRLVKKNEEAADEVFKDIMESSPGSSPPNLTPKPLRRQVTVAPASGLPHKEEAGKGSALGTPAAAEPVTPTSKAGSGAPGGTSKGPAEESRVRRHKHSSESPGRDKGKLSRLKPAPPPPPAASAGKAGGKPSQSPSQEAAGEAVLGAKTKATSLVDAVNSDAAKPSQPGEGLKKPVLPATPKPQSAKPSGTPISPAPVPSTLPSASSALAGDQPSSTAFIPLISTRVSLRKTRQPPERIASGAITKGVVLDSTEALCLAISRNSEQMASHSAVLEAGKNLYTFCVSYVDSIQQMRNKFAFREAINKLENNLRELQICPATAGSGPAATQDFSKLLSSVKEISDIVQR
Protocol for gSAP-16K (16 kDa band): For in vitro labeling, membrane pellets are prepared as described above and resuspended in 50 mM Hepes, pH 7.4, 150 mM NaCl, 5 mM MgCl2, 5 mM CaCl2. […] The bound material is eluted in SDS-tricine sample buffer and separated using 10-20% Tris-tricine gels, followed by transfer to PVDF membrane. The membrane is dried and exposed to Kodak MS film for autoradiography. For intact cell labeling, human embryonic kidney cells (HEK293) grown to ˜80% confluency (˜10^7 cells) are incubated with 0.1 μM ^3H-G01 in Opti-MEM for 2 hours in an incubator at 37° C., with 5% CO2 before being transferred to ice for an additional hour. Medium is removed and cells are washed twice with cold phosphate buffered saline (PBS), pH 7.4. […] The immunoprecipitate is washed 3 times with lysis buffer. The immuno-purified (IP) material is eluted with SDS sample buffer and product is separated using a 10-20% Tris-Tricine SDS-PAGE gel, transferred to PVDF membrane, and the membrane dried and exposed to Kodak MS film for autoradiography.
Endogenous γ-secretase components are detected by specific antibodies to Nicastrin, PS1-CTF and Pen-2. […] After lysis and immunoprecipitation with PS1 antibody, bound proteins are separated by 10-20% Tris-tricine SDS-PAGE.
Intact N2a cell labeling is performed by incubation with ^3H-G01. Cells are lysed with RIPA buffer and proteins were immunoprecipitated with gSAP antibody.
Protocol for mouse ΔE-Notch cleavage: For detection of Notch cleavage, HEK293 human embryonic kidney cells are transfected with mouse ΔE-Notch cDNA with a C-terminal myc tag. For analysis of ΔE-Notch cleavage, cells are incubated with test compounds for 4 h. Cell extracts are prepared by lysing cells in cell lysis buffer (50 mM Tris, pH7.5, 10 mM NaCl, 5 mM EGTA, 1 mM EDTA and complete protease inhibitors (Roche Diagnostics, Indianapolis, Ind.). Protein concentration is determined using Bradford protein detection reagent. Volume is adjusted with cell lysis buffer, then 4× sample loading buffer (Tris-Tricine gel loading buffer) is added, samples are heated 5 min at 95° C., and equivalent amounts of cell protein for each treatment are loaded onto a 10% Bis-Tris gel. C-terminal Notch species are detected with monoclonal anti-c-myc antibody 9E10 (Roche Diagnostics) and fluorescent goat anti-mouse secondary antibody. Fluorescent antibody is quantitated via LiCor Odyssey infrared fluorescence detector.

For the molecule `Cc1ccc(NC(=O)c2ccc(N=[N+]=[N-])cc2O)cc1Nc1nccc(-c2cccnc2)n1` [G01, 4-azido-2-hydroxy-N-(4-methyl-3-(4-(pyridin-3-yl)pyrimidin-2-ylamino)phenyl)benzamide], in [1], the “Aβ in conditioned medium compared to DMSO vehicle” value was “significantly reduces Aβ”.
For `Cc1ccc(NC(=O)c2ccc(CN3CCN(C(=O)CCCC[C@@H]4SC[C@@H]5NC(=O)N[C@@H]54)CC3)cc2)cc1Nc1nccc(-c2cccnc2)n1` [IC200001], the “binding of the ~16 kDa band (gSAP) to the immobilized compound” value at gSAP (16 kDa band) is on record as “does not bind”. Moreover, the “inhibitory activity toward PDGF receptor” value in the data set with PDGF receptor was “no significant inhibitory activity”. Moreover, the “inhibitory activity toward Abl kinase” value against Abl kinase [2] (ATP=45 μM) is listed as “no significant inhibitory activity”.
Consider `Cc1ccc(NC(=O)c2ccc(CN3CCN(CCNC(=O)CCCC[C@@H]4SC[C@@H]5NC(=O)N[C@@H]54)CC3)cc2)cc1Nc1nccc(-c2cccnc2)n1` [IC339239], for which the half-inhibitory concentration (IC50) was found to be 6.6 µM at PDGF receptor (read-out: IC50 against PDGF receptor) and 0.146 µM on Abl kinase [2].
Turning to `CC(C)C[C@H](NC(=O)[C@H](Cc1ccccc1)C[C@@H](O)[C@H](Cc1ccccc1)NC(=O)OC(C)(C)C)C(=O)N[C@@H](Cc1ccccc1)C(N)=O` [L685,458, reference compound], the “Aβ production in the in vitro γ-secretase assay” value at γ-secretase (1 μM) was “abolishes Aβ production”.
In the case of `Cc1ncc(NC(=O)c2ccc(CC3CCN(C)CC3)cc2)cc1Nc1nccc(-c2ccccc2)n1` [N-(6-methyl-5-(4-phenylpyrimidin-2-ylamino)pyridin-3-yl)-4-((1-methylpiperidin-4-yl)methyl)benzamide], in the data set on mouse ΔE-Notch cleavage, the “influence on NOTCH metabolism” value is “do not influence NOTCH metabolism”. The “kinase inhibitory activity against a panel of 40 kinases” value at panel of 40 kinases is “little kinase inhibitory activity”. Moreover, at Abl kinase [3], the Ki is roughly 12 µM and the “weaker activity versus Abl kinase compared to imatinib” value was determined as 100 fold. For the same molecule, the “concentrations that significantly lower Aβ” value in the data set with Aβ in N2a cell system is less than 500 nM.
Regarding `Cc1ccc(NC(=O)c2ccc(N=[N+]=[N-])cc2O)cc1Nc1nccc(-c2cccnc2)n1` [^3H-G01], on gSAP-16K (16 kDa band), the “photolabeling of the 16 kDa protein (gSAP-16K)” value is “specifically labeled”.
With `Cc1ccc(NC(=O)c2ccc(CN3CCN(C)CC3)cc2)cc1Nc1nccc(-c2cccnc2)n1` [imatinib, reference compound], in the data set on Aβ production, the “production of Aβ” value is “inhibits production of Aβ”. Moreover, the “additional effect of imatinib on Aβ levels under gSAP siRNA knockdown” value at gSAP is given as “not additive; also recorded: little or no additional effect”.
Turning to “siRNA: siRNA of gSAP, sense AUGCAGAGCUGGACGACAUUU, antisense 5′-P.AUGUCGUCCAGCUCUGCAUUU (5'-phosphate on antisense, further chemistry not given here)”, the “decrease of the level of Aβ” value with gSAP (gSAP siRNA knockdown) was “about 50%”. Moreover, in the data set with gSAP (siRNA 50 nM), the “reduction of gSAP level” value amounted to 72±15%.

B1: gSAP-16K: recombinant 16 kDa C-terminal fragment, aa 733-854 of human gSAP, expressed in E. coli (protein, UniProt A4D1B5 733-854, looked up, fragment)
chain: RLMKDLDNTEKNEKLKFSIIVRLPPLIGQKICRLWDHPMSSNIISRNHVTRLLQNYKKQPRNSMINKSSFSVEFLPLNYFIEILTDIESSNQALYPFEGHDNVDAEFVEEAALKHTAMLLGL
Take B1: in the data set with γ-secretase (2 μg recombinant gSAP-16K added to membranes, BSA control), the “stimulation of Aβ production” value was found to be 2.4±0.3 fold.
